# Measured values published in patent US7592366B2, “Therapeutic compounds” (Allergan, Inc., priority 2006, dated 2009).
# Experiments:
# Type in all cases: cell-based
# [1] = biological target: T1, hEP4/Gqs5 (Homo sapiens, UniProt P35408); assay: FLIPR calcium signal, EP4; settings: HEK-293(EBNA) cells
# T1 construct: expressed in transfected cells; host or cells: HEK-293(EBNA)
# Method: (§1) HEK-293(EBNA) cells, stably expressing one type or subtype of recombinant human prostaglandin receptors (prostaglandin receptors expressed: hDP/Gqs5; hEP1; hEP2/Gqs5; hEP3A/Gqi5; hEP4/Gqs5; hFP; hIP; hTP), were cultured in 100 mm culture dishes in high-glucose DMEM medium containing 10% fetal bovine serum, 2 mM l-glutamine, 250 μg/ml geneticin (G418) and 200 μg/ml hygromycin B as selection markers, and 100 units/ml penicillin G, 100 μg/ml streptomycin and 0.25 μg/ml amphotericin B.
# (§2) Cells were seeded at a density of 5×10^4 cells per well in Biocoat® Poly-D-lysine-coated black-wall, clear-bottom 96-well plates (Becton-Dickinson) and allowed to attach overnight in an incubator at 37° C. Cells were then washed two times with HBSS-HEPES buffer (Hanks Balanced Salt Solution without bicarbonate and phenol red, 20 mM HEPES, pH 7.4) using a Denley Cellwash plate washer (Labsystems). After 45 minutes of dye-loading in the dark, using the calcium-sensitive dye Fluo-4 […] at a final concentration of 2 μM, plates were washed four times with HBSS-HEPES buffer to remove excess dye leaving 100 μl in each well. Plates were re-equilibrated to 37° C. for a few minutes.
# (§3) Cells were excited with an Argon laser at 488 nm, and emission was measured through a 510-570 nm bandwidth emission filter (FLIPR™, Molecular Devices, Sunnyvale, Calif.). Drug solution was added in a 50 μl volume to each well to give the desired final concentration. The peak increase in fluorescence intensity was recorded for each well. On each plate, four wells each served as negative (HBSS-HEPES buffer) and positive controls (standard agonists: BW245C (hDP); PGE2 (hEP1; hEP2/Gqs5; hEP3A/Gqi5; hEP4/Gqs5); PGF2α (hFP); carbacyclin (hIP); U-46619 (hTP), depending on receptor). The peak fluorescence change in each drug-containing well was then expressed relative to the controls.
# Compounds were tested in a high-throughput (HTS) or concentration-response (CoRe) format. In the HTS format, forty-four compounds per plate were examined in duplicates at a concentration of 10^−5 M. To generate concentration-response curves, four compounds per plate were tested in duplicates in a concentration range between 10^−5 and 10^−11 M. The duplicate values were averaged. In either, HTS or CoRe format each compound was tested on at least 3 separate plates using cells from different passages to give an n≧3.
# [2] = biological target: T2, hTP (Homo sapiens, UniProt P21731); assay: FLIPR calcium signal, hTP; settings: read-out: Other Receptors (EC50 in nM) hTP
# T2 construct: expressed in transfected cells; host or cells: HEK-293(EBNA)
# T2 sequence (P21731 1-343): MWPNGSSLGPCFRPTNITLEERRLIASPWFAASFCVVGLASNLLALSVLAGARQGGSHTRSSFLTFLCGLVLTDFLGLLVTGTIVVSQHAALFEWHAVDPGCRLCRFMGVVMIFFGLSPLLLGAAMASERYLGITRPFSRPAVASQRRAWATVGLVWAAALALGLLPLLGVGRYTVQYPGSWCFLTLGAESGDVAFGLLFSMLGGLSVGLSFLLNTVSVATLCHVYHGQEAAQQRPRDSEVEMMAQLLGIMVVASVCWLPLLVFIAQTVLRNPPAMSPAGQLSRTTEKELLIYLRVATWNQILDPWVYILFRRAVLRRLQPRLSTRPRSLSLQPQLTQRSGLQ
# Method: as §1, §2, §3
# Compounds were tested in a high-throughput (HTS) or concentration-response (CoRe) format. […]
# [3] = biological target: T3, hFP (Homo sapiens, UniProt P43088); assay: FLIPR calcium signal, hFP; settings: read-out: Other Receptors (EC50 in nM) hFP
# T3 construct: expressed in transfected cells; host or cells: HEK-293(EBNA)
# T3 sequence (P43088 whole entry): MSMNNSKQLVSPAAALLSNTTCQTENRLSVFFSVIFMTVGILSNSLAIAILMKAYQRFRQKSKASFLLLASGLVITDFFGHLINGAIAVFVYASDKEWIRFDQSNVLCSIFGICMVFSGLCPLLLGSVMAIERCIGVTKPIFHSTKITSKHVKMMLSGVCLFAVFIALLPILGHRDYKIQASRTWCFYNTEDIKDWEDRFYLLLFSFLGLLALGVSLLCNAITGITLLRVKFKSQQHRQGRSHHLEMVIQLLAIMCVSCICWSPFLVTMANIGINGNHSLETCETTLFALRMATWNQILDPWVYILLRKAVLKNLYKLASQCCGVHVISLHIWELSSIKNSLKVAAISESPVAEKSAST
# Method: as §1
# Cells were seeded at a density of 5×10^4 cells per well in Biocoat® Poly-D-lysine-coated black-wall, clear-bottom 96-well plates (Becton-Dickinson) and allowed to attach overnight in an incubator at 37° C. Cells were then washed two times with HBSS-HEPES buffer (Hanks Balanced Salt Solution without bicarbonate and phenol red, 20 mM HEPES, pH 7.4) using a Denley Cellwash plate washer (Labsystems). […]
# Cells were excited with an Argon laser at 488 nm, and emission was measured through a 510-570 nm bandwidth emission filter (FLIPR™, Molecular Devices, Sunnyvale, Calif.). […] The peak increase in fluorescence intensity was recorded for each well. […] The peak fluorescence change in each drug-containing well was then expressed relative to the controls. […]
# T1 sequence (P35408 whole entry): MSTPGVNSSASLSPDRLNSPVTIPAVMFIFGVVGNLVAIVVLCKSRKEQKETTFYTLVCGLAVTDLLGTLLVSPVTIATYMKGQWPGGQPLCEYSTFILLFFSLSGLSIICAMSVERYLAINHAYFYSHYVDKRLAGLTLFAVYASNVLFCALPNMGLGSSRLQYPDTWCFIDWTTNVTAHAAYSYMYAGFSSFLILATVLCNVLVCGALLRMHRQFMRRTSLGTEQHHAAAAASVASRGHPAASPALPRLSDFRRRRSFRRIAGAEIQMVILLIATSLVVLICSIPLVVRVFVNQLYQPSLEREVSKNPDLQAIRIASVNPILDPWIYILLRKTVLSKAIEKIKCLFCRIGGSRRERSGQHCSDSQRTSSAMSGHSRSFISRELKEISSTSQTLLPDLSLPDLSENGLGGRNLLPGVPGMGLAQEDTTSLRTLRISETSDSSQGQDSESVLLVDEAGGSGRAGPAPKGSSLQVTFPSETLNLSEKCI
EC50 [1] [µM],EC50 [2] [nM],EC50 [3] [nM],SMILES
> 10,64,,"O=C(O)c1ccc(CCC[C@@H]2[C@@H](CCc3cc(F)cc(F)c3)[C@H](O)C[C@H]2Cl)s1 [11d, 5-(3-((1R,2R,3R,5R)-5-chloro-2-(3,5-difluorophenethyl)-3-hydroxycyclopentyl)propyl)thiophene-2-carboxylic acid]"
,,> 10000,"O=C(O)c1ccc(CCC[C@@H]2[C@@H](CCc3cc(Cl)cc(Cl)c3)[C@@H](O)C[C@H]2Cl)s1 [compound 17, 5-(3-((1R,2R,3S,5R)-5-chloro-2-(3,5-dichlorophenethyl)-3-hydroxycyclopenty)propyl)thiophene-2-carboxylic acid]"
